Source: paper PMC5358875 (Journal of the American Chemical Society, 2017)

Assays:
TNKS1 ARC2-3 = target: T1, TNKS1 ARC2-3 (Homo sapiens, UniProt O95271); test: Isothermal titration calorimetry, TNKS1 ARC2-3; assay type: binding; settings: unlabeled peptides and Axin proteins
T1 construct: His6 (cleaved yes); made in house; host or cells: E. coli C41(DE3)
T1 sequence (O95271 315-662): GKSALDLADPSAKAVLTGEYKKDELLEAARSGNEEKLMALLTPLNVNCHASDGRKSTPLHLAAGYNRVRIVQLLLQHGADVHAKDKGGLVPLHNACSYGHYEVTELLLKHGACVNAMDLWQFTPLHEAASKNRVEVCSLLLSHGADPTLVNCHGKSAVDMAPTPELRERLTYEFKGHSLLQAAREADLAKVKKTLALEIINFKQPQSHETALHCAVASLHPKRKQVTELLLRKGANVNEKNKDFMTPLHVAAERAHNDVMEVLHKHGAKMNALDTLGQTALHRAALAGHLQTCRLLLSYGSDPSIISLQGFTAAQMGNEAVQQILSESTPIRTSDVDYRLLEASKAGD
Protocol: (§1) All ITC experiments were performed on a MicroCal iTC200 (GE Healthcare) at 25 °C. TNKS2 ARC4 (488–649), TNKS1 ARC2–3 (315–662), and Axin1 fragments were dialyzed overnight in PBS and 0.5 mM TCEP. Unlabeled peptides were used in the experiments. The peptide was diluted from the stock solution using the same dialysis buffer, and the effect of buffer dilution was accounted for when preparing TNKS samples. TNKS2 ARC4 (160–280 μM) or TNKS1 ARC2–3 (60–150 μM) was titrated into the sample cell containing the peptide (5–15 μM) or Axin1 fragments (8–12 μM) with an initial injection of 0.2 μL over 0.4 s followed by 19 injections of 2 μL over 4 s with a spacing of 60 s, except for TNKS2 ARC4 and Axin1 fragments for which the spacing was 70 s. Control experiments were performed using the same settings as above except that the cell was filled with dialysis buffer. Data were fitted with nonlinear regression using a one-site binding model from Origin 7.0 (MicroCal, Inc.).[90]

TNKS2 ARC4 [1] = target: T2, TNKS2 ARC4 (Homo sapiens, UniProt Q9H2K2); test: Isothermal titration calorimetry, TNKS2 ARC4; assay type: binding; settings: unlabeled peptides and Axin proteins
T2 construct: GST (cleaved yes); made in house; host or cells: E. coli C41(DE3)
T2 sequence (Q9H2K2 488-649): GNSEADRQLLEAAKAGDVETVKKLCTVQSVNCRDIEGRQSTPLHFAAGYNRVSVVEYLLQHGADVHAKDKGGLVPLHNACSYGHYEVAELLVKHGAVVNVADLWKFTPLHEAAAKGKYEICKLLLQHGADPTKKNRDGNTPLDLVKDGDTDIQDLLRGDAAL
Protocol: as §1

[2] = tested on: Wnt-activated HEK 293T cells; test: TOPFLASH dual-luciferase reporter assay; assay type: cell-based; settings: unlabeled peptides
Protocol: A dual-luciferase reporter (DLR) assay in Wnt-activated HEK 293T cells was used to determine the ability of the peptides to modulate β-catenin levels and suppress Wnt transcription. […] Treatment of HEK 293T cells with an increasing concentration of unlabeled peptide cp4n2m3c-Antp (containing the penetratin sequence on the linker) led to a dose-dependent decrease in Wnt pathway reporter activity with an IC50 around 50 μM (Figure 8). […] Moreover, treatment with non-cell-penetrating peptides pep1 or cp4n2m3c had no effect on Wnt reporter activity, nor did treatment with cp4n1m3c-Antp (a cell-penetrating version of the non-binding peptide cp4n1m3c) (Table S2), thereby satisfying these specificity controls.
HEK 293T were grown in Dulbecco’s Modified Eagles Medium (DMEM) supplemented with 10% fetal calf serum. Wnt pathway activity was induced by treating cells with 20 mM LiCl (or KCl as control) or conditioned media obtained from L-cells expressing Wnt3A for 6 h. […]
For TOPFLASH reporter assays, 100 ng of TOPFLASH plasmid and 10 ng of CMV-Renilla plasmid (as internal control) were used to transfect cells in 24-well plates. […] Relative luciferase values were obtained from triplicate samples (from two independent experiments) by dividing the firefly luciferase values (from TOPFLASH) by the Renilla luciferase values (from CMV-renilla), and standard deviations were calculated.

AspN protease = target: T3, AspN protease (Elizabethkingia meningoseptica, UniProt Q47899); test: in vitro; settings: isolated enzyme
T3 sequence (Q47899 92-443): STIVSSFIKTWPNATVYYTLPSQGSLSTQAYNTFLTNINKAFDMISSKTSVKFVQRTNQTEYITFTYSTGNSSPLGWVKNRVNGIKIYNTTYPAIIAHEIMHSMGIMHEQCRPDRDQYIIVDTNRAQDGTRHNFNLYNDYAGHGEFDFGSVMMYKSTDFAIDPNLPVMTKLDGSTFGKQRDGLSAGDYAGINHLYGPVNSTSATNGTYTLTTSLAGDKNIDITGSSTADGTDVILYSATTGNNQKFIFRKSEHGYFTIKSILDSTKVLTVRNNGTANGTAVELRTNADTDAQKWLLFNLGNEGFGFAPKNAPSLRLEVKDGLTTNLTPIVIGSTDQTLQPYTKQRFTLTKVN

TNKS2 ARC4 [3] = target: T2, TNKS2 ARC4; test: Direct fluorescence polarization, TNKS2 ARC4; assay type: binding; settings: TAMRA-labeled peptides; n.d. = not detectable; read-out: Kd TNKS2 ARC4 (Direct FP)
Protocol: Fluorescence polarization (FP) assays were performed in 96-well half area black microplates (Corning) on a CLARIOstar microplate reader (BMG labtech) using excitation filter 540–20 nm, dichroic mirror LP 566 nm, and emission filter 590–20 nm. All peptides were dissolved in water as stock solutions. For direct FP assays, the stock concentrations of the TAMRA-labeled peptides were determined based on the 5-TAMRA absorbance at 556 nm (extinction coefficient ε = 89,000 M^–1 cm^–1) measured on a NanoDrop 2000 (Thermo Scientific) and verified by amino acid analysis (Department of Biochemistry, University of Cambridge). TNKS2 ARC4 (488–649) or TNKS1 ARC2–3 (315–662) was diluted 2-fold serially in the assay buffer (50 mM HEPES pH 7.5, 300 mM NaCl, 2 mM DTT, 0.05% (v/v) Tween 20) for a 12-point titration curve in triplicate. The diluted TAMRA-labeled peptide (20 nM, 50 μL) was mixed with the serially diluted TNKS2 ARC4 or TNKS1 ARC2–3 (40–0 μM, 50 μL) in each well and incubated for 30 min at 25 °C before the measurement. Data were analyzed on GraphPad Prism 5.0, and the dissociation constant, Kd, was determined using the following equation assuming the ratio between the concentration of the bound and that of the total TAMRA-labeled peptide is proportional to the fluorescence polarization [drawing 1] where FP is the fluorescence polarization, B is the minimum FP, T is the maximum FP, L0 is the total concentration of TAMRA-labeled peptide, P0 is the total concentration of protein, and Kd is the dissociation constant.

For Ac-REAGDGEE-NH2 [pep1], the “Stoichiometry (ITC), TNKS1 ARC2-3” value (TNKS1 ARC2-3) was 0.9 ± 0.01, the Kd (TNKS1 ARC2-3; 25 °C, read-out: Kd (nM) to TNKS1 ARC2-3 (ITC)) was 290 ± 30 nM and the “Stoichiometry (ITC), TNKS2 ARC4” value (TNKS2 ARC4 [1]) was 1.0 ± 0.004. The “effect on Wnt reporter activity” value [2] was “no effect”.
`CN(C)c1ccc2c(c1)Oc1cc(N(C)C)ccc1C21OC(=O)c2cc(C(=O)NCCCCCC(=O)N[C@@H](CCCNC(=N)N)C(=O)N[C@@H](CCC(=O)O)C(=O)N[C@H]3CCn4cc(nn4)CCCc4cn(nn4)CC[C@@H](C(=O)N[C@@H](CCC(=O)O)C(N)=O)NC(=O)CNC(=O)[C@H](CC(=O)O)NC(=O)CNC3=O)ccc21` [T-cp4n2m3] gave a remaining at 4.5 h, 400 μM (AspN protease) of about 100% and a Kd (TNKS2 ARC4 [3]) of 600 ± 10 nM.
